Laboratory results taken from ChEMBL document CHEMBL1201862, “PubChem BioAssay data set” (2004).
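Protocol summary: plate cells (96-well), add compound at 5 concentrations, incubate 48 h, interpolate endpoints linearly. Here, GI50 denotes the concentration required for 50% inhibition of growth.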 Active and inactive are the calls of the source. Cut-off read from the data, not from the text of the source: active = GI50 up to about 1.1 µM and inactive = higher.

Legend:
Experiment in all cases: inhibition of tumour cell growth, NCI panel, 48 h
UACC-62 = system: UACC-62
SNB-19 = system: SNB-19
RPMI-8226 = system: RPMI-8226
MDA-N = system: MDA-N
SF-539 = system: SF-539
SK-MEL-28 = system: SK-MEL-28
ACHN = system: ACHN
HOP-92 = system: HOP-92
T47D = system: T47D
LOX IMVI = system: LOX IMVI
HCC 2998 = system: HCC 2998
K562 = system: K562
UO-31 = system: UO-31
UACC-257 = system: UACC-257
OVCAR-8 = system: OVCAR-8
M14 = system: M14
NCI/ADR-RES = system: NCI/ADR-RES
COLO 205 = system: COLO 205
CAKI-1 = system: CAKI-1
786-0 = system: 786-0

| SMILES | GI50 (UACC-62) | GI50 (SNB-19) | GI50 (RPMI-8226) | GI50 (MDA-N) | GI50 (SF-539) | GI50 (SK-MEL-28) | GI50 (ACHN) | GI50 (HOP-92) | GI50 (T47D) | GI50 (LOX IMVI) | GI50 (HCC 2998) | GI50 (K562) | GI50 (UO-31) | GI50 (UACC-257) | GI50 (OVCAR-8) | GI50 (M14) | GI50 (NCI/ADR-RES) | GI50 (COLO 205) | GI50 (CAKI-1) | GI50 (786-0) |
| --- | --- | --- | --- | --- | --- | --- | --- | --- | --- | --- | --- | --- | --- | --- | --- | --- | --- | --- | --- | --- |
| C=C(CN(C)C)C(=O)c1ccc(C)cc1C | 10.5 µM (inactive) | 32.7 µM (inactive) | 1.16 µM (inactive) | 4.55 µM (inactive) | 12.7 µM (inactive) | 6.1 µM (inactive) | 7.73 µM (inactive) | 3.74 µM (inactive) | 3.31 µM (inactive) | 5.12 µM (inactive) | 17.1 µM (inactive) | 1.15 µM (inactive) | 12.2 µM (inactive) | 9.51 µM (inactive) | 12.9 µM (inactive) | 5.93 µM (inactive) | 7 µM (inactive) | 3.38 µM (inactive) | 3.09 µM (inactive) | 5.19 µM (inactive) |
| CCOC(=O)Cn1nc2ccc(Nc3nc4ccccc4nc3C(=O)OCC)cc2n1 | 66.8 µM (inactive) | 34 µM (inactive) | > 100 µM (inactive) | > 100 µM (inactive) | 23.5 µM (inactive) | > 100 µM (inactive) | > 100 µM (inactive) | 31.1 µM (inactive) | 37.5 µM (inactive) | > 100 µM (inactive) | 83 µM (inactive) | > 100 µM (inactive) | 20.8 µM (inactive) | > 100 µM (inactive) | 58.2 µM (inactive) | > 100 µM (inactive) | 54.6 µM (inactive) | > 100 µM (inactive) | > 100 µM (inactive) | 33.4 µM (inactive) |
| CC[C@@]1(O)C(=O)OCc2c1cc1n(c2=O)Cc2c-1nc1ccccc1c2/C=N\NC(=O)CN | 0.0333 µM (active) | < 0.0397 µM (active) | 0.147 µM (active) | 1.57 µM (inactive) | 0.0258 µM (active) | 23 µM (inactive) | < 0.0197 µM (active) | 1.15 µM (inactive) | 0.0486 µM (active) | 0.0989 µM (active) | 2.21 µM (inactive) | 0.586 µM (active) | 0.33 µM (active) | 2.49 µM (inactive) | 0.273 µM (active) | 0.126 µM (active) | 0.726 µM (active) | 15.6 µM (inactive) | 0.131 µM (active) | 0.0908 µM (active) |
| Cc1ccc([N+](=O)[O-])c2c(NCCNC(=O)Cn3ccnc3[N+](=O)[O-])ccnc12 | 22.7 µM (inactive) | 28.9 µM (inactive) | 96.6 µM (inactive) | 69.5 µM (inactive) | 35.5 µM (inactive) | 57.7 µM (inactive) | 44.2 µM (inactive) | 26.5 µM (inactive) | 35.2 µM (inactive) | 45.8 µM (inactive) | 39.6 µM (inactive) | 64.1 µM (inactive) | > 100 µM (inactive) | 29.1 µM (inactive) | 31.3 µM (inactive) | > 100 µM (inactive) | > 100 µM (inactive) | 41 µM (inactive) | 31.8 µM (inactive) | 34.8 µM (inactive) |
| CN1CCN(c2ccc3[nH]c(-c4ccc5[nH]c(CCCc6ccc(N(CCCl)CCCl)cc6)nc5c4)nc3c2)CC1 | 84.5 µM (inactive) | > 100 µM (inactive) | > 100 µM (inactive) | > 100 µM (inactive) | > 100 µM (inactive) | > 100 µM (inactive) | > 100 µM (inactive) | > 100 µM (inactive) | > 100 µM (inactive) | 60.7 µM (inactive) | > 100 µM (inactive) | > 100 µM (inactive) | > 100 µM (inactive) | > 100 µM (inactive) | > 100 µM (inactive) | > 100 µM (inactive) | > 100 µM (inactive) | > 100 µM (inactive) | > 100 µM (inactive) | > 100 µM (inactive) |
